Values belong to the molecule of their own block, whether it stands above or below them.
Experiments:
[1] = biological target: T1, Mitogen-activated protein kinase 14 (Homo sapiens, UniProt Q16539); test: Inhibition of human p38alpha using MBP as substrate by [gamma-33P]-ATP assay
[2] = biological target: T1, Mitogen-activated protein kinase 14; test: Inhibition of p38alpha (unknown origin)
[3] = biological target: Tyrosine-protein kinase ABL1 (Homo sapiens) (UniProt P00519); test: Inhibition of human ABL1 at 10 uM using EAIYAAPFAKKK as substrate by [gamma-33P]-ATP assay relative to control
[4] = biological target: Serine/threonine-protein kinase A-Raf (Homo sapiens) (UniProt P10398); test: Inhibition of human ARAF at 10 uM using MEK1 as substrate by [gamma-33P]-ATP assay relative to control
[5] = biological target: T1, Mitogen-activated protein kinase 14; test: Inhibition of recombinant Nanoluc-tagged p38alpha (unknown origin) expressed in HEK293 cells incubated for 2 to 3 mins by NanoBRET assay; type: cell-based
[6] = biological target: RAC-alpha serine/threonine-protein kinase (Homo sapiens) (UniProt P31749); test: Inhibition of human AKT1 at 10 uM using KGSGSGRPRTSSFAEG as substrate by [gamma-33P]-ATP assay relative to control
[7] = biological target: Receptor tyrosine-protein kinase erbB-4 (Homo sapiens) (UniProt Q15303); test: Inhibition of human ERBB4 at 10 uM using poly[Glu:Tyr] (4:1) as substrate by [gamma-33P]-ATP assay relative to control
[8] = biological target: Mitogen-activated protein kinase 8 (Homo sapiens) (UniProt P45983); test: Inhibition of human JNK1 at 10 uM using ATF2 as substrate by [gamma-33P]-ATP assay relative to control
[9] = biological target: ALK tyrosine kinase receptor (Homo sapiens) (UniProt Q9UM73); test: Inhibition of human ALK at 10 uM using poly[Glu:Tyr] (4:1) as substrate by [gamma-33P]-ATP assay relative to control
[10] = biological target: Tyrosine-protein kinase JAK2 (Homo sapiens) (UniProt O60674); test: Inhibition of human JAK2 at 10 uM using poly[Glu:Tyr] (4:1) as substrate by [gamma-33P]-ATP assay relative to control
[11] = biological target: Mast/stem cell growth factor receptor Kit (Homo sapiens) (UniProt P10721); test: Inhibition of human c-KIT at 10 uM using poly[Glu:Tyr] (4:1) as substrate by [gamma-33P]-ATP assay relative to control
[12] = biological target: Aurora kinase A (Homo sapiens) (UniProt O14965); test: Inhibition of human Aurora A at 10 uM using [H-LRRASLG] as substrate by [gamma-33P]-ATP assay relative to control
[13] = biological target: T1, Mitogen-activated protein kinase 14; test: Inhibition of human p38alpha at 10 uM using MBP as substrate by [gamma-33P]-ATP assay relative to control
[14] = biological target: Serine/threonine-protein kinase B-raf (Homo sapiens) (UniProt P15056); test: Inhibition of human BRAF at 10 uM using MEK1 (K97R) as substrate by [gamma-33P]-ATP assay relative to control
[15] = biological target: Tyrosine-protein kinase JAK1 (Homo sapiens) (UniProt P23458); test: Inhibition of human JAK1 at 10 uM using poly[Glu:Tyr] (4:1) as substrate by [gamma-33P]-ATP assay relative to control
[16] = test system: Serine/threonine-protein kinase B-raf (Homo sapiens), P15056 [V600E]; test: Inhibition of human BRAF V600E mutant at 10 uM using MEK1 (K97R) as substrate by [gamma-33P]-ATP assay relative to control
[17] = biological target: Receptor tyrosine-protein kinase erbB-2 (Homo sapiens) (UniProt P04626); test: Inhibition of human ERBB2 at 10 uM using poly[Glu:Tyr] (4:1) as substrate by [gamma-33P]-ATP assay relative to control
[18] = biological target: RAF proto-oncogene serine/threonine-protein kinase (Homo sapiens, UniProt P04049); test: Inhibition of human RAF1 at 10 uM using MEK1 (K97R) as substrate by [gamma-33P]-ATP assay relative to control
[19] = biological target: Receptor-type tyrosine-protein kinase FLT3 (Homo sapiens) (UniProt P36888); test: Inhibition of human FLT3 at 10 uM using EAIYAAPFAKKK as substrate by [gamma-33P]-ATP assay relative to control
[20] = biological target: Macrophage colony-stimulating factor 1 receptor (Homo sapiens) (UniProt P07333); test: Inhibition of human FMS at 10 uM using poly[Glu:Tyr] (4:1) as substrate by [gamma-33P]-ATP assay relative to control
[21] = biological target: Platelet-derived growth factor receptor beta (Homo sapiens) (UniProt P09619); test: Inhibition of human PDGFRbeta at 10 uM using poly[Glu:Tyr] (4:1) as substrate by [gamma-33P]-ATP assay relative to control
[22] = biological target: PI3-kinase p110-alpha/p85-alpha (Homo sapiens) (UniProt P27986+P42336); test: Inhibition of human PI3K (p110alpha/p85alpha) at 10 uM using PI as substrate by ADP-Glo Assay relative to control; type: protein-complex assay
[23] = biological target: DNA-dependent protein kinase catalytic subunit (Homo sapiens) (UniProt P78527); test: Inhibition of human DNAPK at 10 uM using EPPLSQEAFADLWKK as substrate by […]-ATP assay relative to control
[24] = biological target: Hepatocyte growth factor receptor (Homo sapiens, UniProt P08581); test: Inhibition of human c-MET at 10 uM using KKKSPGEYVNIEFG as substrate by [gamma-33P]-ATP assay relative to control
[25] = biological target: Fibroblast growth factor receptor 1 (Homo sapiens) (UniProt P11362); test: Inhibition of human FGFR1 at 10 uM using KKKSPGEYVNIEFG as substrate by [gamma-33P]-ATP assay relative to control
[26] = biological target: Mitogen-activated protein kinase 1 (Homo sapiens) (UniProt P28482); test: Inhibition of human ERK2 at 10 uM using MBP as substrate by [gamma-33P]-ATP assay relative to control
[27] = biological target: Epidermal growth factor receptor (Homo sapiens) (UniProt P00533); test: Inhibition of human EGFR at 10 uM using poly[Glu:Tyr] (4:1) as substrate by [gamma-33P]-ATP assay relative to control
[28] = biological target: Vascular endothelial growth factor receptor 2 (Homo sapiens) (UniProt P35968); test: Inhibition of human KDR at 10 uM using poly[Glu:Tyr] (4:1) as substrate by [gamma-33P]-ATP assay relative to control
[29] = biological target: Dual specificity mitogen-activated protein kinase kinase 1 (Homo sapiens) (UniProt Q02750); test: Inhibition of human MEK1 at 10 uM using ERK2 as substrate by [gamma-33P]-ATP assay relative to control
Rattus norvegicus = test: Antiinflammatory activity in Sprague-Dawley rat assessed as inhibition of carrageenan-induced paw edema at 50 mg/kg, ip administered 1 hr before carrageenan stimulation and measured after 3 hrs relative to control; type: functional
[30] = Stability in rat plasma assessed as remaining compound at 10 uM incubated for 30 mins by LC-MS analysis; type: ADME, cell-free; conditions: read-out: Stability
[31] = Stability in rat plasma assessed as remaining compound at 10 uM incubated for 120 mins by LC-MS analysis; type: ADME, cell-free; conditions: read-out: Stability
[32] = Stability in human plasma assessed as remaining compound at 10 uM incubated for 30 mins by LC-MS analysis; type: ADME, cell-free; conditions: read-out: Stability
[33] = Stability in human plasma assessed as remaining compound at 10 uM incubated for 120 mins by LC-MS analysis; type: ADME, cell-free; conditions: read-out: Stability
THP-1 = test: Inhibition of LPS-induced TNFalpha production in human THP1 cells incubated for 1 hr followed by LPS stimulation and measured after 4 hrs by TR-FRET method; type: functional, cell-based

T1 sequence (Q16539 whole entry): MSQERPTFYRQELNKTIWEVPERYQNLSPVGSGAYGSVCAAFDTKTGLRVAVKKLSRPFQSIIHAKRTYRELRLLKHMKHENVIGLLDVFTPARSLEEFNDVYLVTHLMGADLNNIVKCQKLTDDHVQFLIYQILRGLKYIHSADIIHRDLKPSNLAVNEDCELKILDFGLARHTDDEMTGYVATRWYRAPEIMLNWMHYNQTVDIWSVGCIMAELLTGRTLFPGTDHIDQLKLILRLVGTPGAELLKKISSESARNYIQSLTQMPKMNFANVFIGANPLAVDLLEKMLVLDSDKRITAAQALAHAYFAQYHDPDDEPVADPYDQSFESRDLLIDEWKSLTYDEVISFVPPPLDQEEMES
Sequence of Platelet-derived growth factor receptor beta (Homo sapiens) (P09619 whole entry): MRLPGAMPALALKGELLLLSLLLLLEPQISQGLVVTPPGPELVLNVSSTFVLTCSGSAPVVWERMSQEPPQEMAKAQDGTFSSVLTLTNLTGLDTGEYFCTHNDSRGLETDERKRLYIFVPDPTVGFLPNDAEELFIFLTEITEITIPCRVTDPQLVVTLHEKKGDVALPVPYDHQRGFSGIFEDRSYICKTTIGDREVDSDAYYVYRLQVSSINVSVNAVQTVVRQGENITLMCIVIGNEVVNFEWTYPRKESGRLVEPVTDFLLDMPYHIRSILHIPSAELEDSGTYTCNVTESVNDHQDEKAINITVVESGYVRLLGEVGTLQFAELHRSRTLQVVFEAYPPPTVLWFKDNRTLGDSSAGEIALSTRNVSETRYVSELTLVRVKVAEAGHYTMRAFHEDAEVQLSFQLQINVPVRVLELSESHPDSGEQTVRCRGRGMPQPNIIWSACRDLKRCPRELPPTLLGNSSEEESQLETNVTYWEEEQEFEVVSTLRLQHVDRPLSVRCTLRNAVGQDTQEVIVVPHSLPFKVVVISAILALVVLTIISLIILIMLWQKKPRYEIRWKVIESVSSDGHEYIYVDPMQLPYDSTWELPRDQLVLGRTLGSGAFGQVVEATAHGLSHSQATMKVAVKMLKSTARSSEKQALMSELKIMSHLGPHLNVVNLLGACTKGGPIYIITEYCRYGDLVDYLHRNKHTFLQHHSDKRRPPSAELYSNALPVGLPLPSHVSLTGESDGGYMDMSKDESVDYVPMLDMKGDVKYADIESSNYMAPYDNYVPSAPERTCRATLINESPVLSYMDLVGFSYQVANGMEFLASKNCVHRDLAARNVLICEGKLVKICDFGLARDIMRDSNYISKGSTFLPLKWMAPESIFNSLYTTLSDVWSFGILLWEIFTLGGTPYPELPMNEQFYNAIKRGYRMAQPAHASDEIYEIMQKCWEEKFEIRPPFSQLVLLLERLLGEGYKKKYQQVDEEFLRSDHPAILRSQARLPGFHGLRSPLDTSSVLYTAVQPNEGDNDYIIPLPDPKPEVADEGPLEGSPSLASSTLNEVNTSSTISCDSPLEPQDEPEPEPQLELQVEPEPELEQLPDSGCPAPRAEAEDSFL
Sequence of Hepatocyte growth factor receptor (P08581 whole entry): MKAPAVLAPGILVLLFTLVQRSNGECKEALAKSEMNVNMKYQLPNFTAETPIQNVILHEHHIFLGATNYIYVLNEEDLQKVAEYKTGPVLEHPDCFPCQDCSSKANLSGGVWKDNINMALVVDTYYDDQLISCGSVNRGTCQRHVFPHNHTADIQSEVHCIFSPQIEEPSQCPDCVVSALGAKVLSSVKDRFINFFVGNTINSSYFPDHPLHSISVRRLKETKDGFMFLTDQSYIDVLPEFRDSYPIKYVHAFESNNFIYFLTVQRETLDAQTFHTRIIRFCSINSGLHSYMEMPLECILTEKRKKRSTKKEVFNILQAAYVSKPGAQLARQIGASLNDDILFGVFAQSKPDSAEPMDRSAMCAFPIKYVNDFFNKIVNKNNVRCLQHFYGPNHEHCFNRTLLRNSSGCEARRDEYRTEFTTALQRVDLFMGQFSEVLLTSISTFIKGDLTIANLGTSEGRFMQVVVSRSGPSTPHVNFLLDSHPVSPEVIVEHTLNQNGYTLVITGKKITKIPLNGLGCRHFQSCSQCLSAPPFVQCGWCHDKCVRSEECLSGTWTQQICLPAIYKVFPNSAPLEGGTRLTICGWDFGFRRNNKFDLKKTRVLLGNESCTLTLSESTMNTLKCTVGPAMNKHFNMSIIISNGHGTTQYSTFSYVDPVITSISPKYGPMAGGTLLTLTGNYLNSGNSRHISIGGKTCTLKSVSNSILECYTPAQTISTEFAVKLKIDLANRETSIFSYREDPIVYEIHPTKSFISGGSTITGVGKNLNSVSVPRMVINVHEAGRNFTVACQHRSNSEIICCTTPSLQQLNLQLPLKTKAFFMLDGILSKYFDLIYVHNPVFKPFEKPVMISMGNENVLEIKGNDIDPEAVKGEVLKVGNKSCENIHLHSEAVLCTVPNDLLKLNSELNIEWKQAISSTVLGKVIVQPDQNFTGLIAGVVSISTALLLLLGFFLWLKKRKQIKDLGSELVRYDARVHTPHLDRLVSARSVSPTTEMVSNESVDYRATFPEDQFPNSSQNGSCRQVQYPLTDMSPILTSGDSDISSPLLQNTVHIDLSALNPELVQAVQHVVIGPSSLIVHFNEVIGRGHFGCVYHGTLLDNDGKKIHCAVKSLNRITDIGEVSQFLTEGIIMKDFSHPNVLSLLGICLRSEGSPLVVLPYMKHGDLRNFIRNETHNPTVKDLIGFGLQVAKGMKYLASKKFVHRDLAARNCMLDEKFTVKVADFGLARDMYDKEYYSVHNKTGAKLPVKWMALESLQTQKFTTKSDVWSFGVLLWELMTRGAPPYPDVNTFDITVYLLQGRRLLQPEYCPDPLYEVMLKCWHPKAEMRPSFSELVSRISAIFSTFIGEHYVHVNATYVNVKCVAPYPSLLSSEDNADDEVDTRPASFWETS
Sequence of Mitogen-activated protein kinase 1 (Homo sapiens) (P28482 whole entry): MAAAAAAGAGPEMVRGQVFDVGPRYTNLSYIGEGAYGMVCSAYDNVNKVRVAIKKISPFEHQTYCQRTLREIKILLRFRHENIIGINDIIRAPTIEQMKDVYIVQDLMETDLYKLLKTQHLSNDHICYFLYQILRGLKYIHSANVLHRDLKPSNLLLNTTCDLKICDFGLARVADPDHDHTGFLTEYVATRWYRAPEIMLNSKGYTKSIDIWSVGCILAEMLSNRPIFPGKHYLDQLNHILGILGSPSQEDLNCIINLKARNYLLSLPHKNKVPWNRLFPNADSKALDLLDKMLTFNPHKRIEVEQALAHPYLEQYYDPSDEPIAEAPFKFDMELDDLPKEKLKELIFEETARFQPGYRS
Sequence of Fibroblast growth factor receptor 1 (Homo sapiens) (P11362 22-822 limits assumed): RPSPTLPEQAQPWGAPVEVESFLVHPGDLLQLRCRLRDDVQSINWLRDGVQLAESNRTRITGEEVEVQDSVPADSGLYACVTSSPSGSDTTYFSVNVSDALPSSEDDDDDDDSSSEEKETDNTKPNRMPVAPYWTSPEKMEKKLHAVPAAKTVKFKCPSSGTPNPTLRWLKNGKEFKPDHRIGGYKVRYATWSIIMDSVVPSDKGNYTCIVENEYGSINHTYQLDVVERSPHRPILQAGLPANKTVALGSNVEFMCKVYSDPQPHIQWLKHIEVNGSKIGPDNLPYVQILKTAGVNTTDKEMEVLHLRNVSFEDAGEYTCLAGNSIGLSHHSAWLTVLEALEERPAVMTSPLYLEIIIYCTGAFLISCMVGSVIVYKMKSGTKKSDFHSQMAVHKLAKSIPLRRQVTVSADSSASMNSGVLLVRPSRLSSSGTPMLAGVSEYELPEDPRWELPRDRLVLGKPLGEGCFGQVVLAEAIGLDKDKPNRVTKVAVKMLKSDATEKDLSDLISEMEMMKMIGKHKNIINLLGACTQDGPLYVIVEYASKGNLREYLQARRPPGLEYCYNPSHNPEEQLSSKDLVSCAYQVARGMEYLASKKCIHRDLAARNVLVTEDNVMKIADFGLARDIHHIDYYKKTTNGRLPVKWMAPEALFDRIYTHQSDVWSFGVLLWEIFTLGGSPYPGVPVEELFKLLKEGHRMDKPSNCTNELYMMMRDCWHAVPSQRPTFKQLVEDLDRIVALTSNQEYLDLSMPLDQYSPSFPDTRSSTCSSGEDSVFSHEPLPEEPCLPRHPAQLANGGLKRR
Sequence of Mitogen-activated protein kinase 8 (Homo sapiens) (P45983 whole entry): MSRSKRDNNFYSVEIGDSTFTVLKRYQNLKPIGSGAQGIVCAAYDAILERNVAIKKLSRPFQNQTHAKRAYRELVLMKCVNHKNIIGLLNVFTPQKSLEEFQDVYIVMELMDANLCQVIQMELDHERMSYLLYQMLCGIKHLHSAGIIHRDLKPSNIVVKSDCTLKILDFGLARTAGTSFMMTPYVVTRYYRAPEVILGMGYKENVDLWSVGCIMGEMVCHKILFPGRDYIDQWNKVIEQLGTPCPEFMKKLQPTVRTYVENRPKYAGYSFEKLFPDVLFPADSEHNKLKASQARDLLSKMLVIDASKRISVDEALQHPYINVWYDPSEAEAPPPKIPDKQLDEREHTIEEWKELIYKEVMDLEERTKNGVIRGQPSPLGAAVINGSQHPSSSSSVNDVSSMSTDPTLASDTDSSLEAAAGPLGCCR
Sequence of RAC-alpha serine/threonine-protein kinase (Homo sapiens) (P31749 whole entry): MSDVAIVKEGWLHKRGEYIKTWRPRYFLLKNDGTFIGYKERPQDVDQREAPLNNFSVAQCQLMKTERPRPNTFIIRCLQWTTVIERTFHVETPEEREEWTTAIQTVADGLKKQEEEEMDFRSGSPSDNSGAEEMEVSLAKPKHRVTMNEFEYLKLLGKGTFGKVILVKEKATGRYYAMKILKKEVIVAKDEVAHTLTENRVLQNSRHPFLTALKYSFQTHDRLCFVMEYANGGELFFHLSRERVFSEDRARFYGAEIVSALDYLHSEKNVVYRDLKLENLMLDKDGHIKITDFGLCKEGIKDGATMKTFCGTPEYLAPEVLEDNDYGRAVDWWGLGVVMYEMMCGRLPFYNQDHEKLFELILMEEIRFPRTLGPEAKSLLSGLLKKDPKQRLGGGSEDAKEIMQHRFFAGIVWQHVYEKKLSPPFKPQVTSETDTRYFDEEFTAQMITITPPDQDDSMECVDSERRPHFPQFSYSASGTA

Compound: O=C(Nc1cccc(-n2cc(-c3ccncc3)c(-c3ccc(O)c(Cl)c3)n2)c1)Nc1cc(C(F)(F)F)cc(C(F)(F)F)c1
IC50 [1]: > 30 µM

Compound: COc1cccc(-c2nn(-c3ccccc3)cc2-c2ccncc2)c1
IC50 [2]: 0.515 µM

Compound: COc1ccc(-c2nn(-c3cccc(NC(=O)Nc4cc(C(F)(F)F)cc(C(F)(F)F)c4)c3)cc2-c2ccncc2)cc1Cl
inhibition [3]: -7.26%
inhibition [4]: 57%
EC50 [5]: 1.94 µM
inhibition [6]: 4.08%
inhibition [7]: 20.1%
inhibition [8]: 22.2%
inhibition [9]: -3.13%
inhibition [10]: -4.38%
inhibition [11]: 2.7%
inhibition [12]: -3.14%
inhibition [13]: 86.4%
inhibition [14]: 8.96%
inhibition [15]: 9%
inhibition [16]: 35.8%
inhibition [17]: 0.29%
inhibition [18]: 40.4%
inhibition [19]: -6.35%
inhibition [20]: 5.95%
IC50 [1]: 0.307 µM
inhibition [21]: -7.69%
inhibition [22]: 8.99%
inhibition [23]: 0.81%
inhibition [24]: 48.5%
inhibition [25]: 4.66%
inhibition [26]: -8.43%
inhibition [27]: 2.48%
inhibition [28]: 2.65%
inhibition [29]: -4.12%

Compound: O=C(Nc1cccc(-n2cc(-c3ccncc3)c(-c3ccc(O)c(Cl)c3)n2)c1)c1ccc(N2CCOCC2)c(C(F)(F)F)c1
IC50 [1]: > 30 µM

Compound: O=C(O)Cc1ccccc1Nc1c(Cl)cccc1Cl [DICLOFENAC]
inhibition in vivo at 50 mg/kg (Rattus norvegicus): 71.3%

Compound: COc1ccc(-c2nn(-c3cccc(NC(=O)c4ccc(N5CCOCC5)c(C(F)(F)F)c4)c3)cc2-c2ccncc2)cc1Cl
IC50 [1]: 6.07 µM

Compound: CCN(CC)CCOC(=O)c1ccc(N)cc1 [PROCAINE]
remaining at 0.5 h, 10 µM [30]: 89.9%
remaining at 2 h, 10 µM [31]: 42.7%
remaining at 0.5 h, 10 µM [32]: 1.2%
remaining at 2 h, 10 µM [33]: 0.2%

Compound: C[S+]([O-])c1ccc(-c2nc(-c3ccc(F)cc3)c(-c3ccncc3)[nH]2)cc1 (stereo not given) [SB-203580]
IC50 (THP-1): 0.02 µM

Compound: O=C(Nc1cccc(-n2cc(-c3ccncc3)c(-c3ccc(O)c(Cl)c3)n2)c1)Nc1ccc(Cl)c(C(F)(F)F)c1
IC50 [1]: > 30 µM

Compound: COc1ccc(-c2nn(-c3cccc(NC(=O)c4cc(C(F)(F)F)cc(C(F)(F)F)c4)c3)cc2-c2ccncc2)cc1Cl
IC50 [1]: 2.33 µM

Compound: O=C(Nc1cccc(-n2cc(-c3ccncc3)c(-c3ccc(O)c(Cl)c3)n2)c1)c1cccc(C(F)(F)F)c1
IC50 [1]: > 30 µM

Further lines, results first:

IC50 [1]: 14.3 µM
Compound: O=C(Nc1cccc(-n2cc(-c3ccncc3)c(-c3ccc(O)c(Cl)c3)n2)c1)c1ccc(Cl)c(Cl)c1

IC50 [1]: 1.29 µM
Compound: COc1ccc(-c2nn(-c3cccc(NC(=O)c4ccc(Cl)c(Cl)c4)c3)cc2-c2ccncc2)cc1Cl

IC50 [1]: 2.83 µM
Compound: COc1ccc(-c2nn(-c3cccc(NC(=O)Nc4ccc(Cl)c(Cl)c4)c3)cc2-c2ccncc2)cc1Cl

IC50 [1]: > 30 µM
Compound: O=C(Nc1cccc(-n2cc(-c3ccncc3)c(-c3ccc(O)c(Cl)c3)n2)c1)c1cc(C(F)(F)F)cc(C(F)(F)F)c1

IC50 [1]: > 30 µM
Compound: O=C(Nc1cccc(-n2cc(-c3ccncc3)c(-c3ccc(O)c(Cl)c3)n2)c1)Nc1cccc(C(F)(F)F)c1

IC50 [1]: 12.2 µM
Compound: COc1ccc(-c2nn(-c3cccc(NC(=O)Nc4cccc(C(F)(F)F)c4)c3)cc2-c2ccncc2)cc1Cl

IC50 [1]: 8.54 µM
Compound: COc1ccc(-c2nn(-c3cccc(NC(=O)Nc4ccc(Cl)c(C(F)(F)F)c4)c3)cc2-c2ccncc2)cc1Cl

IC50 [1]: 14.4 µM
Compound: O=C(Nc1cccc(-n2cc(-c3ccncc3)c(-c3ccc(O)c(Cl)c3)n2)c1)Nc1ccc(Cl)c(Cl)c1

remaining at 0.5 h, 10 µM [30]: 86.3%
remaining at 2 h, 10 µM [31]: 45.4%
remaining at 0.5 h, 10 µM [32]: 91.5%
remaining at 2 h, 10 µM [33]: 89.3%
Compound: COc1ccc([C@@H]2Sc3ccccc3N(CCN(C)C)C(=O)[C@@H]2OC(C)=O)cc1 [DILTIAZEM]

IC50 [1]: 4 µM
Compound: COc1ccc(-c2nn(-c3cccc(NC(=O)Nc4ccccc4)c3)cc2-c2ccncc2)cc1Cl

IC50 [1]: > 30 µM
Compound: O=C(Nc1ccccc1)Nc1cccc(-n2cc(-c3ccncc3)c(-c3ccc(O)c(Cl)c3)n2)c1

— ChEMBL document CHEMBL4311959, “Discovery of a potent p38α/MAPK14 kinase inhibitor: Synthesis, in vitro/in vivo biological evaluation, and docking studies” (Eur J Med Chem, 2019)
